Type in all cases: biochemical
In one test the target is T1, JMJD2B (h) (Homo sapiens, UniProt O94953).
T1 sequence (O94953 1-1096): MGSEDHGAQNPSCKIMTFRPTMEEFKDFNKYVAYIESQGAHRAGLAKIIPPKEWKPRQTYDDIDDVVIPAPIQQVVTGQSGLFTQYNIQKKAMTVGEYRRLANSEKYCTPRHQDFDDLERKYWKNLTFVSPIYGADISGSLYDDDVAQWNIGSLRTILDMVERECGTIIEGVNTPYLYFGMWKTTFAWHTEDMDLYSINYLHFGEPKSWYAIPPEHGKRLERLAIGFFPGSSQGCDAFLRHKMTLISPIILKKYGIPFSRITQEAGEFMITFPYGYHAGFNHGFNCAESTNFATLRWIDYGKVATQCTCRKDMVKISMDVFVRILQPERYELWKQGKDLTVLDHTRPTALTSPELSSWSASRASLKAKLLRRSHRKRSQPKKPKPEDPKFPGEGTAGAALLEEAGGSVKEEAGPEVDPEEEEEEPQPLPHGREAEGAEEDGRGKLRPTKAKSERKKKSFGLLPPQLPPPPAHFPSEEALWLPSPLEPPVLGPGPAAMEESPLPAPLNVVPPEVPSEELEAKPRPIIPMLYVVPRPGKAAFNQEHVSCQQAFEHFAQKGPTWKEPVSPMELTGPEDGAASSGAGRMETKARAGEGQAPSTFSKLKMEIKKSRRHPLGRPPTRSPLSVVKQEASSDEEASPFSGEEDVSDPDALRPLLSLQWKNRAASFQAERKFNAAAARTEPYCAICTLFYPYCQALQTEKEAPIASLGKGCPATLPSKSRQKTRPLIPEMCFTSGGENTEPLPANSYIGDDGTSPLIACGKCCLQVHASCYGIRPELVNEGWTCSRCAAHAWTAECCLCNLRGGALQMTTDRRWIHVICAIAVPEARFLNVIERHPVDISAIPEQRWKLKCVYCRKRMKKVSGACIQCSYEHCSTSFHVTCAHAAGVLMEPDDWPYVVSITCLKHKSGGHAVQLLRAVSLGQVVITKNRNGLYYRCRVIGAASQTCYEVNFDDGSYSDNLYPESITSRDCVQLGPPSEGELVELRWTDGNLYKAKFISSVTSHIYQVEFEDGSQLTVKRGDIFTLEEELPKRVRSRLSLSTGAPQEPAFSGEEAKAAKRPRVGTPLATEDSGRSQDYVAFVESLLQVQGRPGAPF
As to the kind of experiment: Epigenetic enzyme assay, Demethylases (KDMs). Particulars: for inhibition at 10 µM: read-out: % Inhibition of Control Values.

For another test, the target named is T2, HMG-CoA Reductase (Homo sapiens, UniProt P04035).
T2 construct: host or cells: E. coli
T2 sequence (P04035 426-888 limits assumed): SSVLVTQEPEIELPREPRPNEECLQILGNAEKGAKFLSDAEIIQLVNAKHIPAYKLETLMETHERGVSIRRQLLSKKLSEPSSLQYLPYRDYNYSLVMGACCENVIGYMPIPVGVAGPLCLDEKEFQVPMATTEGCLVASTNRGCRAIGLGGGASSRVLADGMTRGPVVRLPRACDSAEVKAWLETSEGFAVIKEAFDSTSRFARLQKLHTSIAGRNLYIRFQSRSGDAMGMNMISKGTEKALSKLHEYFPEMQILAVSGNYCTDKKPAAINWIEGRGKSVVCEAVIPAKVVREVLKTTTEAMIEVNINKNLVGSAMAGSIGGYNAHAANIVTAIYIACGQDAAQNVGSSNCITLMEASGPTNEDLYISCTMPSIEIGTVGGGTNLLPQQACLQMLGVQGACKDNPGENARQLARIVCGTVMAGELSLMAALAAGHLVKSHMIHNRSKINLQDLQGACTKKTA
Briefly: HMG-CoA Reductase. Conditions: assay year 2015, read-out: % Control Response. The method, then: The in vitro pharmacological studies were conducted by Eurofins PanLab (Taiwan) using the parameters shown in Table 13 with respect to appropriate literature references.

In another test the target is T3, EHMT1 (h) (Homo sapiens, UniProt Q9H9B1).
T3 sequence (Q9H9B1 1-1298): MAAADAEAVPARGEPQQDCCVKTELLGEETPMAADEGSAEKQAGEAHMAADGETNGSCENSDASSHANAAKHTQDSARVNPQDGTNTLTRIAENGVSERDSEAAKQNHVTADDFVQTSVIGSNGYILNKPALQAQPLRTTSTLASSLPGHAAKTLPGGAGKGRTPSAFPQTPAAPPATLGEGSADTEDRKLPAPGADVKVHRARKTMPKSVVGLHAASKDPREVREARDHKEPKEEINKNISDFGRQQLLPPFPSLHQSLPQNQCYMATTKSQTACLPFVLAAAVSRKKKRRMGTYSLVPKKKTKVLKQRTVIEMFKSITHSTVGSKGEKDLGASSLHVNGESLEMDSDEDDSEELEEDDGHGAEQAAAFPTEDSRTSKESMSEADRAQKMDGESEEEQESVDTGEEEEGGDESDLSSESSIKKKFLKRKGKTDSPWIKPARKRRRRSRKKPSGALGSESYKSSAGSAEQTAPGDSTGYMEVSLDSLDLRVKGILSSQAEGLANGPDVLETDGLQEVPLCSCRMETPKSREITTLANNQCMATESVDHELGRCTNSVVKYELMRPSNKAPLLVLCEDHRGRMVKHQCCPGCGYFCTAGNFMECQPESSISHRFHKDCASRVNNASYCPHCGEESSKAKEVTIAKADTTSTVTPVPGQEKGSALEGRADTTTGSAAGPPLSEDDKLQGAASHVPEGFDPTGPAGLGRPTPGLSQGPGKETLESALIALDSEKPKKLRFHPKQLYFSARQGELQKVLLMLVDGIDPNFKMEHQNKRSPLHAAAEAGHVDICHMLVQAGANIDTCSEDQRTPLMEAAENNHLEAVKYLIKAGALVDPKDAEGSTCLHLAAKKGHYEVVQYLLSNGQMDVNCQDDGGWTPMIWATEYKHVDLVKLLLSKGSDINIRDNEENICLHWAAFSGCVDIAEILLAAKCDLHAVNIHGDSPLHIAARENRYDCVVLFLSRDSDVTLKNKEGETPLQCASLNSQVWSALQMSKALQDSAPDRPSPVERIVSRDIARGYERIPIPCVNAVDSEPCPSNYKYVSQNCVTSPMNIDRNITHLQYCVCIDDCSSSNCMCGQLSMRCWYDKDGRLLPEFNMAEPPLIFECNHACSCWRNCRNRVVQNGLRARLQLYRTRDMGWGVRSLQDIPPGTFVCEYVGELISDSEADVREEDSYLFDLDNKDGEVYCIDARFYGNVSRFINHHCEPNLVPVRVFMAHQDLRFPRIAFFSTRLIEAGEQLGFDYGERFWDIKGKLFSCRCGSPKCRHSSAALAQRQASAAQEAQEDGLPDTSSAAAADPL
As to the kind of experiment: Epigenetic enzyme assay, Methyltransferases (MTs). Particulars: for inhibition at 10 µM: read-out: % Inhibition of Control Values.

Another test concerns the target JARID1C (h) (Homo sapiens, UniProt P41229). As to the kind of experiment: Epigenetic enzyme assay, Demethylases (KDMs). Conditions: read-out: % Inhibition of Control Values.

The values below come from US11331299B2, “Medicinal use of serrulatane diterpenes” (The University of Sydney, priority 2016, dated 2022).

Chain of JARID1C (h) (P41229 whole entry): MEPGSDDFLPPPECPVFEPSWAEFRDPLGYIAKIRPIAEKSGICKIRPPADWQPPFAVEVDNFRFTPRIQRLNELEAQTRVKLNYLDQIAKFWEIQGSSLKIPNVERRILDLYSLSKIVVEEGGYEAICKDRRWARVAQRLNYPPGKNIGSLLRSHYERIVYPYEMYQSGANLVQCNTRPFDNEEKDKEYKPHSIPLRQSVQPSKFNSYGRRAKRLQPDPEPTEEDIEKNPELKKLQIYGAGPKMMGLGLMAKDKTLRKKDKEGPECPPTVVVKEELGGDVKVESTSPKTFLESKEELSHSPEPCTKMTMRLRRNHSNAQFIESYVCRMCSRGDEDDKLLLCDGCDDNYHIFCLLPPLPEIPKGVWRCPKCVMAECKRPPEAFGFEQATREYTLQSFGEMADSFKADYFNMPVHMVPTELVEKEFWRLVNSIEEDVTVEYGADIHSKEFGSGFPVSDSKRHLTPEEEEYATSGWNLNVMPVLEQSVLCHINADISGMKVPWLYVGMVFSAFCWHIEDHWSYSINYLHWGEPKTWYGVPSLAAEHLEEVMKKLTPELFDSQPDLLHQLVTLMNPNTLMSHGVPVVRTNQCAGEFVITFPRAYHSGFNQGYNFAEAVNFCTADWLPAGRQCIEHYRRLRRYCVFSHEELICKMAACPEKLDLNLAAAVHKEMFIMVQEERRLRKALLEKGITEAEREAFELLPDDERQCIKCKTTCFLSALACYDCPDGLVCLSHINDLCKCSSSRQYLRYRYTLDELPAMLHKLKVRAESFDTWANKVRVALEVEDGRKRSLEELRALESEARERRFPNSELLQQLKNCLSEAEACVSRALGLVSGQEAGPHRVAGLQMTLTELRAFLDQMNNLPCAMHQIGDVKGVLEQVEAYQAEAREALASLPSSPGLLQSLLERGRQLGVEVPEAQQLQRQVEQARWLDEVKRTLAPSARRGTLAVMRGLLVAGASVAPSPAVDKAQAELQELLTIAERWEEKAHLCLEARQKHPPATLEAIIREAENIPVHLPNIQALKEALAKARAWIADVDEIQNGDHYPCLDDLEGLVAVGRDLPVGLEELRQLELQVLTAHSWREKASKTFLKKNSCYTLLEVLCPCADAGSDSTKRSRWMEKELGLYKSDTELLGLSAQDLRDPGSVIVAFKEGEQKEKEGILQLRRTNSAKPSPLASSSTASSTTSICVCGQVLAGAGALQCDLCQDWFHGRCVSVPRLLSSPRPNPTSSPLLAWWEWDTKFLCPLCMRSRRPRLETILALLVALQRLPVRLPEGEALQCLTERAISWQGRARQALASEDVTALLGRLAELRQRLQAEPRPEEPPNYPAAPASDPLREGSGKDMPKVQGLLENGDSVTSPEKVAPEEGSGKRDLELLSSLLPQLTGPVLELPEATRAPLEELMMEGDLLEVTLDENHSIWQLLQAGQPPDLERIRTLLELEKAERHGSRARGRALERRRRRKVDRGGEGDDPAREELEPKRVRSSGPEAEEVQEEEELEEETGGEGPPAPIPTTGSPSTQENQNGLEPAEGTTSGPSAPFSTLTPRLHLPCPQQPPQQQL

As to `CC(C)=CCC[C@@H]1C(O)Oc2c(C)cc(O)c3c2[C@H]1CC[C@H]3C` (stereo partly drawn) [Compound 2, 5,18-epoxyserrulat-14-en-8,18-diol], the inhibition at 10 µM at JMJD2B (h) (10 μM) was 16%; at EHMT1 (h), 9%; on JARID1C (h) it was -13%. Besides, the remaining activity at 10 µM on HMG-CoA Reductase amounted to 27%.
On to `CC(C)=CCC[C@@H]1COc2c(C)cc(O)c3c2[C@H]1CC[C@H]3C` [Compound 3, 5,18-epoxy-8-hydroxyserrulat-14-ene], for which the inhibition at 10 µM on JMJD2B (h) (10 μM) turned out to be 8%; at EHMT1 (h), 63%; on JARID1C (h), 25%. The remaining activity at 10 µM at HMG-CoA Reductase turned out to be 24%.
Take `CC(C)=CCC[C@H](CO)[C@@H]1CC[C@@H](C)c2c1cc(C)c(O)c2O` [Compound 1, 7,8,18-trihydroxyserrulat-14-ene]: the “% Inhibition of Control Values” at JMJD2B (h) (10 μM) was “significant inhibitory activity”. The inhibition at 10 µM on JMJD2B (h) (10 μM) was found to be 65%; at EHMT1 (h), 13%; on JARID1C (h) it was 49%. Further, on JMJD2B (h) (Table 11, inhibition/concentration-response curve, read-out: IC50), the IC50 came to 12 µM. In addition, at HMG-CoA Reductase, the remaining activity at 10 µM amounted to 29%.
Take `Nc1ncnc2c1ncn2[C@@H]1O[C@H](CSCC[C@H](N)C(=O)O)[C@@H](O)[C@H]1O` [SAH]: the IC50 at EHMT1 (h) (read-out: Reference IC50) was 0.18 µM.
